Source: US10499641B2 (priority 2010, dated 2019)

Columns and labels:
Phytophthora infestans = format: in vivo; conditions: young tomato plants, sprayed, active ingredient concentration 100 ppm, inoculated 1 day after treatment, evaluation 7 days after inoculation; 100% = no infection
Plasmopara viticola = experiment: Plasmopara test (grapevine)/protective; format: in vivo; conditions: young grapevine plants, sprayed, active ingredient concentration 10 ppm, evaluation 6 days after inoculation; 100% = no infection
Summary of the method: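 Young grapevine plants sprayed with compound in acetone/dimethylacetamide with emulsifier, diluted in water; after drying, inoculated with P. viticola spore suspension, held 1 day at ~20 °C/100% RH, 4 days greenhouse ~21 °C/~90% RH, then 1 day in incubation cabin. Efficacy scored 6 days post-inoculation; 0% equals untreated control, 100% means no infection.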

Peronospora brassicae = experiment: Peronospora test (oilseed rape seeds)/seed treatment; format: in vivo; conditions: dose 50 g/dt, 14-day-old plants inoculated, incubated 7 days, infected leaf area, 100% = no disease
Protocol: Peronospora Test (Oilseed Rape Seeds)/Seed Treatment
The test was conducted under greenhouse conditions.
Oilseed rape seeds treated with an inventive active compound or a combination of inventive active compounds dissolved in N-methyl-2-pyrrolidone and diluted with water to the desired dose were sown in 6*6 cm vessels. The vessels contain 4 cm of a 1:1 mixture of steam-treated field soil and sand. The plants grew at 10° C.
14-day-old plants were inoculated with an aqueous spore suspension of Peronospora brassicae. The vessels containing the plants were incubated in a greenhouse at a temperature of 15° C. and a relative air humidity of 100% for 7 days.
The assessment of the test included the evaluation of the infected leaf area per plant. 0% means an efficiency corresponding to that of the control, while an efficiency of 100% means that no disease is observed.

[1] = pH 7.8

| Structure (SMILES) | Eff. % (Phytophthora infestans) [%] | Eff. % (Plasmopara viticola) [%] | Eff. % (Peronospora brassicae) [%] | logp [b] [1] | chromatographic logP (physchem; pH 2.7) | chromatographic logP (physchem; pH 7.8) |
| --- | --- | --- | --- | --- | --- | --- |
| O=C(Cn1nc(C(F)F)cc1C(F)F)N1CCC(c2nc(C3=NOC(c4ccccc4C=NO)C3)cs2)CC1 (mixture of isomers) [Example I-4] | 100 | 100 | 92 | – | – | – |
| Cc1cc(C(F)(F)F)nn1CC(=O)N1CCC(c2nc(C3=NOC(c4ccccc4C=NO)C3)cs2)CC1 (mixture of isomers) [Example I-38] | 100 | 95 | 86 | – | – | – |
| C[Si](C)(C)C#CCOc1ccccc1C1CC(c2csc(C3CCN(C(=O)Cn4nc(C(F)F)cc4C(F)F)CC3)n2)=NO1 (stereo not drawn) [Example I-1, 2-[3,5-Bis(difluoromethyl)-1H-pyrazol-1-yl]-1-(4-{4-[5-(2-{[3-(trimethylsilyl)prop-2-yn-1-yl]oxy}phenyl)-4,5-dihydro-1,2-oxazol-3-yl]-1,3-thiazol-2-yl]piperidin-1-yl}ethanone] | – | – | – | 4.58[b] | – | – |
| O=C(Cn1nc(C(F)F)cc1C(F)F)N1CCC(c2nc(C3=NOC(c4ccccc4OCC#Cc4cccc5ccccc45)C3)cs2)CC1 (stereo not drawn) [Example I-2, 2-[3,5-Bis(difluoromethyl)-1H-pyrazol-1-yl]-1-(4-{4-[5-(2-{[3-(1-naphthyl)prop-2-yn-1-yl]oxy}phenyl)-4,5-dihydro-1,2-oxazol-3-yl]-1,3-thiazol-2-yl}piperidin-1-yl)ethanone] | 100 | – | – | – | 4.81 | 4.68 |
| CC(C)(C)OC(=O)Nc1ccc(C2CC(c3csc(C4CCN(C(=O)Cn5nc(C(F)F)cc5C(F)F)CC4)n3)=NO2)cc1 (stereo not drawn) [Example I-17, tert-Butyl (4-{3-[2-(1-{[3,5-bis(difluoromethyl)-1H-pyrazol-1-yl]acetyl}piperidin-4-yl)-1,3-thiazol-4-yl]-4,5-dihydro-1,2-oxazol-5-yl}phenyl)carbamate] | 100 | – | – | 3.46[b] | – | – |
| CC(=NO)c1ccccc1C1CC(c2csc(C3CCN(C(=O)Cn4nc(C(F)(F)F)cc4C)CC3)n2)=NO1 (stereo not drawn) [Example I-40, 1-[4-(4-{5-[2-(N-Hydroxyethanimidoyl)phenyl]-4,5-dihydro-1,2-oxazol-3-yl}-1,3-thiazol-2-yl)piperidin-1-yl]-2-[5-methyl-3-(trifluoromethyl)-1H-pyrazol-1-yl]ethanone] | 100 | 90 | – | – | 2.92 | – |
| CON=Cc1cccc(F)c1C1CC(c2csc(C3CCN(C(=O)Cn4nc(C(F)F)cc4C(F)F)CC3)n2)=NO1 (stereo not drawn) [Example I-60] | 84 | 100 | 95 | – | – | – |
| Cc1cc(C(F)(F)F)nn1CC(=O)N1CCC(c2nc(C3=NOC(c4ccccc4OS(=O)(=O)C4CC4)C3)cs2)CC1 (stereo not drawn) [Example I-61] | 89 | 100 | 90 | – | – | – |
| Cc1cc(C(F)(F)F)nn1CC(=O)N1CCC(c2nc(C3=NOC(c4ccccc4OS(C)(=O)=O)C3)cs2)CC1 (stereo not drawn) [Example I-62] | 89 | 100 | 90 | – | – | – |
| CCS(=O)(=O)Oc1ccccc1C1CC(c2csc(C3CCN(C(=O)Cn4nc(C(F)F)cc4C(F)F)CC3)n2)=NO1 (stereo not drawn) [Example I-65] | 100 | 100 | 90 | – | – | – |
| CS(=O)(=O)Oc1ccccc1C1CC(c2csc(C3CCN(C(=O)Cn4nc(C(F)F)cc4C(F)F)CC3)n2)=NO1 (stereo not drawn) [Example I-124] | 100 | 100 | 100 | – | – | – |
